Measured values taken from US20250188032A1, “NITROGEN-CONTAINING HETEROCYCLIC COMPOUNDS AND USES THEREOF” (BNH RESEARCH CO., LTD., priority 2022, published 2025).

System: APP/PS1 mice sensory cerebral cortex
Experiment: TC potency and GABA/AMPA ratio in sensory cortex of Alzheimer's animal model
Assay type: in vivo
Experimental: For intravenous injection, the tail vein injection method was used. […] In the drug injection test, the compound was administered once a day for about 11 to 13 days. 5 mice were used for the compound administration group and the control group, respectively.
For TC or hippocampus slice preparation. 9 to 10 weeks-old male C57BL/6J mice were anesthetized with isoflurane. Then, the brain was rapidly cooled via transcardial perfusion with ice-cold sucrose-artificial cerebrospinal fluid (aCSF). The brain was removed and placed in ice-cold sucrose aCSF. Paracoronal slices were prepared at an angle of 50° relative to the midline on a ramp at an angle of 10°. […]
For the minimal stimulation protocol (Potency), VB thalamic stimulation intensity was adjusted to find the lowest intensity that elicited a mixture of synaptic responses and failures. Failure rate was calculated as the number of failures/total number of trials. Potency was calculated as the mean EPSC peak amplitude excluding failures (see Chittajallu & Isaac, 2010, Emergence of cortical inhibition by coordinated sensory-driven plasticity at distinct synaptic loci, DOI: 10.1038/nn.2639; see Isaac et al., 1997, Silent Synapses during Development of Thalamocortical Inputs, https://doi.org/10.1016/S08966273((0)80267-6; and see Stevens & Wang, 1995, Facilitation and depression at single central synapses, DOI: 10.1016/08966273(95)90223-6). […]

C[C@@H]1CC[C@H](C(=O)O)CN1C(=O)Cc1ccc(F)cc1Cl [BnH12001 enantiomer (3S,6R, 98%<), (3S,6R)-1-(2-(2-chloro-4-fluorophenyl)acetyl)-6-methylpiperidine-3-carboxylic acid]
Balance of excitation/inhibition (GABA/AMPA ratio): maintaining the balance of excitation/inhibition | Excitatory TC synaptic potency (TC potency): increased the excitatory TC synaptic potency
